Test [1] has as its system (+)-N-allylnormetazocine-induced turning. As to the kind of experiment: (+)-N-Allylnormetazocine-Induced Turning Behavior in Rats. It counts as in vivo, rat (male Sprague-Dawley). The note with it: p.o.
The test system of test [2] is isolation-induced aggressive behavior. As to the kind of experiment: Isolation-Induced Aggression in Mice. The class given is in vivo, mouse (male Balb/c). The note with it: po. As to the method:
Male Balb/c mice (Charles River) were used. […] Isolated mice failing to consistently attack an intruder were eliminated from the colony.
Drug testing was carried out by treating the isolated mice with test drugs or standards. Fifteen min after dosing with drugs by the oral route (po), one isolated mouse was removed from its home cage and placed in the home cage of another isolate. Scoring was a yes or no response for each pair. A maximum of 3 min was allowed for an attack and the pair was separated immediately upon an attack. Selection of home cage and intruder mice was randomized for each test. Mice were treated and tested twice a week with at least a 2 day washout period between treatments.

Another test relates to Venturia inaequalis. The test can be described thus: Test C: apple scab disease control (apple seedlings). It counts as in vivo. The conditions noted are these: sprayed at 1000 to 2 ppm (rate not given per compound). The protocol:
The test compounds were dissolved in acetone in an amount equal to 6% of the final volume and then suspended at a concentration of from 1000 to 2 ppm in purified water containing 250 ppm of the surfactant TREM 014 (polyhydric alcohol esters). This suspension was sprayed to the point of run-off on apple seedlings. The following day plants were inoculated with a spore suspension of Venturia inaequalis, the causal agent of apple scab, and incubated in a saturated humidity chamber at 20° C. for 24 hours and then in a growth chamber at 22° C. for 11 days, when disease ratings were made.

Another test relates to Rhizoctonia solani. As to the kind of experiment: Test I: rice sheath blight disease control (rice seedlings). The class given is in vivo. The conditions noted are these: sprayed at 1000 to 2 ppm (rate not given per compound). The protocol:
The test compounds were dissolved in acetone in an amount equal to 6% of the final volume and then suspended at a concentration of from 1000 to 2 ppm in purified water containing 250 ppm of the surfactant TREM 014 (polyhydric alcohol esters). This suspension was sprayed to the point of run-off on rice seedlings. The following day plants were inoculated with a mycelial suspension of Rhizoctonia solani, the causal agent of rice sheath blight, and incubated in a saturated humidity chamber at 27° C. for 48 hours and then in a growth chamber at 29° C. for 4 days, when disease ratings were made.

A further test concerns Puccinia recondita. The test can be described thus: Test B: wheat leaf rust disease control (wheat seedlings). The class given is in vivo. The conditions noted are these: sprayed at 1000 to 2 ppm (rate not given per compound). As to the method: The test compounds were dissolved in acetone in an amount equal to 6% of the final volume and then suspended at a concentration of from 1000 to 2 ppm in purified water containing 250 ppm of the surfactant TREM 014 (polyhydric alcohol esters). This suspension was sprayed to the point of run-off on wheat seedlings.

Another test relates to Cercosporidum personatum. As to the kind of experiment: Test D: peanut late leaf spot disease control (peanut seedlings). It counts as in vivo. The conditions noted are these: sprayed at 1000 to 2 ppm (rate not given per compound). The protocol:
The test compounds were dissolved in acetone in an amount equal to 6% of the final volume and then suspended at a concentration of from 1000 to 2 ppm in purified water containing 250 ppm of the surfactant TREM 014 (polyhydric alcohol esters). This suspension was sprayed to the point of run-off on peanut seedlings. The following day plants were inoculated with a spore suspension of Cercosporidum personatum, the causal agent of peanut late leaf spot, and incubated in a saturated humidity chamber at 22° C. for 24 hours and then in a high humidity chamber at 27° C. for 7 days, and then in a growth chamber at 29° C. for 7 days, when disease ratings were made.

In a further test the test system is Plasmopara viticola. The test can be described thus: Test G: grape downy mildew disease control (grape seedlings). It counts as in vivo. The note with it: sprayed at 1000 to 2 ppm (rate not given per compound). The protocol:
The test compounds were dissolved in acetone in an amount equal to 6% of the final volume and then suspended at a concentration of from 1000 to 2 ppm in purified water containing 250 ppm of the surfactant TREM 014 (polyhydric alcohol esters). This suspension was sprayed to the point of run-off on grape seedlings. The following day plants were inoculated with a spore suspension of Plasmopara viticola, the causal agent of grape downy mildew, and incubated in a dew chamber at 20° C. for 24 hours and then in a growth chamber a 20° C. for 7 days, when disease ratings were made.

Test [3] relates to Erysiphe graminis f. sp. tritici. The test can be described thus: Test A: wheat powdery mildew disease control (wheat seedlings). The class given is in vivo. The conditions noted are these: sprayed at 1000 to 2 ppm (rate not given per compound). As to the method: The test compounds were dissolved in acetone in an amount equal to 6% of the final volume and then suspended at a concentration of from 1000 to 2 ppm in purified water containing 250 ppm of the surfactant TREM 014 (polyhydric alcohol esters). This suspension was sprayed to the point of run-off on wheat seedlings. The following day plants were inoculated with a spore dust of Erysiphe graminis f. sp. tritici, the causal agent of wheat powdery mildew, and incubated in a growth chamber at 20° C. for 7 days, when disease ratings were made.

Another test deals with Phytophthora infestans. It counts as in vivo. The conditions noted are these: tomato late blight; sprayed at 1000 to 2 ppm (rate not given per compound).
The test system of another test is Botrytis cinerea. As to the kind of experiment: Test E: cucumber grey mold disease control (cucumber seedlings). The class given is in vivo. The conditions noted are these: sprayed at 1000 to 2 ppm (rate not given per compound). The protocol:
The test compounds were dissolved in acetone in an amount equal to 6% of the final volume and then suspended at a concentration of from 1000 to 2 ppm in purified water containing 250 ppm of the surfactant TREM 014 (polyhydric alcohol esters). This suspension was sprayed to the point of run-off on cucumber seedlings. The following day plants were inoculated with a spore suspension of Botrytis cinerea, the causal agent of cucumber grey mold, and incubated in a saturated humidity chamber at 20° C. for 48 hours and then in a greenhouse for 5 days, when disease ratings were made.

For another test, the system named is Pyricularia oryzae. It counts as in vivo. The conditions noted are these: rice blast; sprayed at 1000 to 2 ppm (rate not given per compound).
The subject of the next test is sigma receptor. The conditions noted are these: Tam, Eur. Pharmacol. 109: 33-41 (1985); cited from earlier work.

The source of these data is patent publication US5169855A, “Piperidine ether derivatives as psychotropic drugs or plant fungicides” (priority 1990, dated 1992).

Structures are written as SMILES.

On to `Fc1ccc(OCC2CCN(Cc3ccccc3)CC2)cc1` [Example 68, 1-Benzyl-4-(4'-Fluorophenoxymethyl)piperidine], for which the “antagonism of N-allylnormetazocine-induced rotation (in words)” value in test [1] is recorded as “potently antagonized”. In addition, the “inhibiting the isolation-induced aggressive behavior (in words)” value in [2] is on record as “potent activities”.

Take `Fc1ccc(COCC2CCN(Cc3ccc(Cl)cc3)CC2)cc1` [Example 188]: in the test on Venturia inaequalis, the “disease control rating, Test C” value came out at 93%. Moreover, the “disease control rating, Test I” value in the test on Rhizoctonia solani amounted to 0%. Further, in the test on Puccinia recondita, the “disease control rating, Test B” value came out at 72%. Further, in the test with Cercosporidum personatum, the “disease control rating, Test D” value is 82%. Besides, the “disease control rating, Test G” value in the test with Plasmopara viticola was 89%. Also, in test [3], the “disease control rating, Test A” value was found to be 100%. The “disease control rating, Test F” value in the test with Phytophthora infestans came out at 8%. The “disease control rating, Test E” value with Botrytis cinerea was 18%. In the test with Pyricularia oryzae, the “disease control rating, Test H” value was determined as 0%.

With `O=C(CCCN1CCC(O)(c2ccc(Cl)cc2)CC1)c1ccc(F)cc1` [Haloperidol, reference compound], the “antagonism of N-allylnormetazocine-induced rotation (in words)” value in [1] is given as “potently antagonized”. Moreover, in [2], the “inhibiting the isolation-induced aggressive behavior (in words)” value is “potent activities”.

Consider `c1ccc(C2(N3CCCCC3)CCCCC2)cc1` [PCP], for which the “affinity for the sigma receptor (in words)” value with sigma receptor is recorded as “significant affinity”.
